Measurements taken from patent publication US11104661B1, “Inhibiting human integrin (α-4) (β-7)” (Morphic Therapeutic, Inc., priority 2019, dated 2021).

Molecular target: T1, α4β7 (Homo sapiens, UniProt P13612+P26010)
T1 construct: endogenous in cells; host or cells: RPMI 8866 cells
T1 sequence (P13612 34-1032): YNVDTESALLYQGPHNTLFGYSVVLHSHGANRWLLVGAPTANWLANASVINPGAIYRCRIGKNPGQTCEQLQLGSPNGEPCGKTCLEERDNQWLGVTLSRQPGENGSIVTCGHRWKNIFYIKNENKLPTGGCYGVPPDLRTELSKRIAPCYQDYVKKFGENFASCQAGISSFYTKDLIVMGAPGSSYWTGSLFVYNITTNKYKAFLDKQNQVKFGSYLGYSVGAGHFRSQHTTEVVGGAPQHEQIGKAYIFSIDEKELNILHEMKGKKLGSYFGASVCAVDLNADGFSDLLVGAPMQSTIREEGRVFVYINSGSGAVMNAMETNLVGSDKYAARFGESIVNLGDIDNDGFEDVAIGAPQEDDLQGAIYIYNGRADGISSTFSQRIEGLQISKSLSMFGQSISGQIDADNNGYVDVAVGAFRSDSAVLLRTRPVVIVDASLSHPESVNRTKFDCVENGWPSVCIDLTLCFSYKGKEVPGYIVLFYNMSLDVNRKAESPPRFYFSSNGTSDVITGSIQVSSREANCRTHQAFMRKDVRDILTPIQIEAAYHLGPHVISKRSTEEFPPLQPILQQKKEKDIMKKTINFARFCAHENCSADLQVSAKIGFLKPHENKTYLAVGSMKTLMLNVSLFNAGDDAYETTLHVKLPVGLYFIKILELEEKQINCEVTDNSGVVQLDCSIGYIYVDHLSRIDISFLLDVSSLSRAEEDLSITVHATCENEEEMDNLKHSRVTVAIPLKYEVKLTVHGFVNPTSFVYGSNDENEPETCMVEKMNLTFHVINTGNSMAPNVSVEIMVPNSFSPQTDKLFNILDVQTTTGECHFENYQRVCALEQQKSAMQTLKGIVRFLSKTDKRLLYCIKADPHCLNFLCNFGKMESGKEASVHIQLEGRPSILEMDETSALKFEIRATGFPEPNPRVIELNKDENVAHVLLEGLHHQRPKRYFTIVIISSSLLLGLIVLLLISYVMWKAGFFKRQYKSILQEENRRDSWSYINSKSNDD
T1 sequence (P26010 20-798): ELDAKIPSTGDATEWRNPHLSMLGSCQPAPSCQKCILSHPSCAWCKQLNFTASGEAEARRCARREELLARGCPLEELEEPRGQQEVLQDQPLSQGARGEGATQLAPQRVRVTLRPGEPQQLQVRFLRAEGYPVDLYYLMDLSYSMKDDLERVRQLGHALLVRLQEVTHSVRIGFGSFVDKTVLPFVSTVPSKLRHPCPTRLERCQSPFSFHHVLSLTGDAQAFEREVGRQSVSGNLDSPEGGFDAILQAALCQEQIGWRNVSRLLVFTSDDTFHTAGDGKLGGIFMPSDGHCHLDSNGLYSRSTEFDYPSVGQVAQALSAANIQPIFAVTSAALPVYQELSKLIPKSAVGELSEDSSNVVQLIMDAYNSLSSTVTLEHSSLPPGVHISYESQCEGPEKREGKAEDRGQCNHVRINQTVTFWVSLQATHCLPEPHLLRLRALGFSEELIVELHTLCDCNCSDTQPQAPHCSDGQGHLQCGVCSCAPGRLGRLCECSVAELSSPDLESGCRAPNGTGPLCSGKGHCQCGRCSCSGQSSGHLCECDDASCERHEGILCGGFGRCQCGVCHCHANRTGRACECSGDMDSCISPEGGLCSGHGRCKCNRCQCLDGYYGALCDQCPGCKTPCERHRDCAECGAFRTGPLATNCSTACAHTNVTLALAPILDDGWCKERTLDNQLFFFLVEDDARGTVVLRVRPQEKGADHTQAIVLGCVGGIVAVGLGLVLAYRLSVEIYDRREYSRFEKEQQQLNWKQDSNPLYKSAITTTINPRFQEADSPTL
Assay: Cell-based MAdCAM-1 ligand binding assay (LBA) on RPMI 8866 cells (Example 6)
Conditions: MAdCAM-1-Fc Dylight 650, 3 mM manganese chloride, flow cytometry, Table 3, read-out: LB Assay (Example 6)
Description: Compounds of Formula (I) were further evaluated using a Ligand binding assay (LBA) to examine compound potency of free ligand binding to receptors expressed on cells. The MAdCAM ligand binding assay uses flow cytometry to measure the binding of fluorescently-labeled MAdCAM-1-Fc to RPMI 8866 cells in the presence of Mn++. This assay assesses the binding of compounds to native full-length receptors on the cell surface. […] Ligand binding assays (LBA) are used to examine compound potency and selectivity of free ligand binding to receptors expressed on cells.
Three in vitro assays were used to examine the α4β7 mechanistic process used by cells: 1) ligand:receptor affinity, 2) the avidity of those interactions on a cell's surface, and 3) how those interactions fare under an imposing force. In Example 5, a Fluorescence Polarization (FP) assay is used to measure compound activity through binding competition with the fluorescein-labeled peptide. In Example 6, the potency of compounds against α4β7 is measured in the cell-based ligand binding assay (LBA), using RPMI 8866 cells incubated with the compound samples in competition with soluble MAdCAM-1 ligand. In Example 7, activity of compounds is evaluated in a cell adhesion assay that mechanistically tests what occurs in vivo when trafficking cells utilize α4β7 to adhere to MAdCAM-1 expressing HEVs of the gut during the extravasation process. In the cell adhesion assay of Example 7, a MAdCAMI1-(Fc) is coated on plastic, and α4β7 expressing cells (RPMI-8866) are allowed to adhere to the coated surface in the presence of the test compounds. Next, the force of washing with buffer is applied to cells thereby testing the strength of that adhesion. Unattached cells are removed and the remaining adherent cells are quantified.
5 ul of 33 nM MAdCAM-1-Fc fluorescently labeled with Dylight 650 in 50 mM HEPES pH 7.3, 150 mM sodium chloride, and 1% bovine serum albumin was added to the cells. The samples were incubated for 45 minutes at room temperature, fixed with 0.8% formaldehyde for 30 minutes at room temperature, and washed with 50 mM Tris pH 7.5, 150 mM NaCl, 1 mM EDTA, and 1% bovine serum albumin. Fluorescence intensity for each cell was measured via flow cytometry. Dead cells were excluded from further analysis based on staining with the 780 fixable viability dye. Median fluorescence intensity for Dylight 650 was determined for each sample and concentration-response curves were analyzed for IC50 values using 4-parameter non-linear regression analysis.

**Q.** For Cc1cc(-c2c(C)cccc2C)cc([C@H](CC(=O)O)NC(=O)C(CC(C)C)n2cc(CCN3CC[C@@H](F)C3)cc(F)c2=O)c1F (single isomer, unassigned) [AU-P2], which IC50 is on record?
**A.** < 10 nM

**Q.** Cc1cc(-c2c(C)ccc(F)c2C)cc([C@H](CC(=O)O)NC(=O)C(CC(C)C)n2cc(CCN3CCC3)c(C(F)(F)F)cc2=O)c1F (single isomer, unassigned) [AF-P2] was tested. Which IC50 did it give?
**A.** < 10 nM

**Q.** With COc1ccc(C)c(-c2cc(C)c(F)c([C@H](CC(=O)O)NC(=O)C(CC(C)C)n3cc(CCN4CCC4)c(C(F)(F)F)cc3=O)c2)c1C (single isomer, unassigned) [AG-P2] as the compound, how does the IC50 read?
**A.** < 10 nM

Same assay, conditions: MAdCAM-1-Fc Dylight 650, 3 mM manganese chloride, flow cytometry, Table 4 comparative compounds, read-out: LB Assay (Example 6)

**Q.** For CC(C)C[C@@H](C(=O)N[C@@H](CC(=O)O)c1ccc(-c2ccccc2)cc1)n1cc(CCN(C)C)c(C(F)(F)F)cc1=O, which IC50 is on record?
**A.** 10 to 500 nM

**Q.** For CC(C)C[C@@H](C(=O)N[C@@H](CC(=O)O)c1ccc(-c2ccc(F)cc2)cc1)n1cc(CCN2CC(F)C2)cc(F)c1=O, which IC50 is on record?
**A.** 10 to 500 nM

**Q.** How did the IC50 turn out when Cc1cccc(C)c1-c1cncc([C@H](CC(=O)O)NC(=O)[C@H](CC(C)C)n2ccc(C(F)(F)F)cc2=O)c1 was run?
**A.** < 10 nM

**Q.** For Cc1cccc(C)c1-c1cccc([C@H](CC(=O)O)NC(=O)[C@H](CC(C)C)n2cc(CN3CC(F)C3)ccc2=O)c1 [drawing 599], which IC50 is on record?
**A.** < 10 nM

**Q.** Cc1cccc(C)c1-c1cccc([C@H](CC(=O)O)NC(=O)[C@H](CC(C)C)n2cccc(CCN(C)C)c2=O)c1 was tested. Which IC50 did it give?
**A.** 10 to 500 nM

**Q.** For Cc1ccn([C@@H](CC(C)C)C(=O)N[C@@H](CC(=O)O)c2cncc(-c3c(C)cccc3C)c2)c(=O)c1, which IC50 is on record?
**A.** < 10 nM

**Q.** Cc1ccc([C@@H](C(=O)N[C@@H](CC(=O)O)c2cncc(-c3c(C)cccc3C)c2)N2CC(C)CCC2=O)cc1 (stereo partly shown) was tested. Which IC50 did it give?
**A.** 10 to 500 nM

**Q.** Which IC50 does the source give for Cc1cccc(C)c1-c1cccc([C@H](CC(=O)O)NC(=O)[C@H](CC(C)C)n2cc(CN3CC(F)C3)ccc2=O)c1 [drawing 572] here?
**A.** < 10 nM

**Q.** With Cc1cccc(C)c1-c1cccc([C@H](CC(=O)O)NC(=O)[C@H](CC(C)C)n2cc(CN3CC(F)C3)ccc2=O)c1 [drawing 585] as the compound, how does the IC50 read?
**A.** < 10 nM

**Q.** With CC(C)C[C@@H](C(=O)N[C@@H](CC(=O)O)c1ccc(-c2ccc(F)cc2)cc1)n1cc(CCN(C)C)c(C(F)(F)F)cc1=O as the compound, how does the IC50 read?
**A.** 10 to 500 nM

**Q.** For Cc1cccc(C)c1-c1cccc([C@H](CC(=O)O)NC(=O)[C@H](CC(C)C)n2cc(CN3CC(F)C3)ccc2=O)c1 [drawing 604], which IC50 is on record?
**A.** < 10 nM

**Q.** Which IC50 does the source give for Cc1ccccc1-c1cccc([C@H](CC(=O)O)NC(=O)[C@H](CC(C)C)n2cccc(C)c2=O)c1 here?
**A.** 10 to 500 nM

**Q.** How did the IC50 turn out when Cc1cccc(C)c1-c1cccc([C@H](CC(=O)O)NC(=O)[C@H](CC(C)C)n2cc(CN3CC(F)C3)ccc2=O)c1 [drawing 577] was run?
**A.** < 10 nM

**Q.** With Cc1cccc(C)c1-c1cccc([C@H](CC(=O)O)NC(=O)[C@H](CC(C)C)n2cc(CN3CC[C@@H](F)C3)ccc2=O)c1 as the compound, how does the IC50 read?
**A.** < 10 nM

**Q.** How did the IC50 turn out when Cc1cccc(C)c1-c1cccc([C@H](CC(=O)O)NC(=O)[C@H](CC(C)C)n2cc(CCN(C)C)ccc2=O)c1 was run?
**A.** < 10 nM

**Q.** Cc1cccc(C)c1-c1cncc([C@H](CC(=O)O)NC(=O)[C@H](CC(C)C)N2CC[C@@H](C(F)(F)F)CC2=O)c1 was tested. Which IC50 did it give?
**A.** 10 to 500 nM

**Q.** For Cc1cccc(C)c1-c1cccc([C@H](CC(=O)O)NC(=O)[C@H](CC(C)C)n2cc(CN3CC(F)C3)ccc2=O)c1 [drawing 594], which IC50 is on record?
**A.** < 10 nM

**Q.** With Cc1cccc(C)c1-c1cncc([C@H](CC(=O)O)NC(=O)[C@H](CC(C)C)n2cc(CN3CC(F)C3)ccc2=O)c1 as the compound, how does the IC50 read?
**A.** < 10 nM

**Q.** With COC[C@@H](C(=O)N[C@@H](CC(=O)O)c1cccc(-c2c(C)cccc2C)c1)n1ccc(C)cc1=O as the compound, how does the IC50 read?
**A.** 10 to 500 nM

**Q.** CC(C)C[C@@H](C(=O)N[C@@H](CC(=O)O)c1ccc(-c2ccccc2)cc1)n1cc(CCN2CC(F)C2)cc(F)c1=O was tested. Which IC50 did it give?
**A.** 10 to 500 nM

**Q.** With Cc1cccc(C)c1-c1cccc([C@H](CC(=O)O)NC(=O)[C@H](CC(C)C)n2ccc(CCN(C)C)cc2=O)c1 as the compound, how does the IC50 read?
**A.** < 10 nM

**Q.** With Cc1cccc(C)c1-c1cccc([C@H](CC(=O)O)NC(=O)[C@H](CC(C)C)n2cc(CN3CC(F)C3)ccc2=O)c1 [drawing 589] as the compound, how does the IC50 read?
**A.** < 10 nM
